Measurements published in US20080242649A1, “New Combination 665” (priority 2007, published 2008).
Where a name gives a salt, the structure may show the parent alone.

Legend:
[1] = biological target: T1, recombinant human α1D receptor (Homo sapiens, UniProt P25100); test: Adrenergic α1D [3H]-prazosin binding, HEK293 membranes; details: inhibition of [3H]-prazosin binding; read-out: α1 bind pIC50 (converted)
T1 construct: expressed in transfected cells; host or cells: HEK293 cells (membranes)
T1 sequence (P25100 1-572): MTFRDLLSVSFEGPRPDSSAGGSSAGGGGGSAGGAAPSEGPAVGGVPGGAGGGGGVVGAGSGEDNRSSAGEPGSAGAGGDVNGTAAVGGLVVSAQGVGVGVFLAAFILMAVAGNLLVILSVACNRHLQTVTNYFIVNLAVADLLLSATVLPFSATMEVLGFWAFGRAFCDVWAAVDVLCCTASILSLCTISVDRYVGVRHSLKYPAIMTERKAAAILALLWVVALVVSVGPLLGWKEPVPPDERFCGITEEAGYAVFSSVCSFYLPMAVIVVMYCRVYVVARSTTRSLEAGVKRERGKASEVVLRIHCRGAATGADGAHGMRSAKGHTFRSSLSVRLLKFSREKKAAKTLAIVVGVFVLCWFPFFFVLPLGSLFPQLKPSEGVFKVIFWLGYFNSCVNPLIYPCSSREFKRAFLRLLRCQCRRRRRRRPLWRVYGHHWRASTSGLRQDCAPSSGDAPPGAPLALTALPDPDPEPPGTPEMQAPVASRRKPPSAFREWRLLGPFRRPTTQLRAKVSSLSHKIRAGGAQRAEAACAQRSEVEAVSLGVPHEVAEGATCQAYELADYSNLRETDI
Protocol: Membranes were prepared from human embryonic kidney 293 (HEK293) cells expressing recombinant human α1D receptor. These were diluted in Assay Buffer (50 mM HEPES, 1 mM EDTA, 0.1% gelatin, pH 7.4) to provide a final concentration of membranes that gave a clear window between maximum and minimum specific binding.
Assays were performed in U-bottomed 96-well polypropylene plates. 10 μL [^3H]-prazosin (0.3 nM final concentration) and 10 μL of Compound A (10× final concentration) were added to each test well. For each assay plate 8 replicates were obtained for [^3H]-prazosin binding in the presence of 10 μL vehicle (10% (v/v) DMSO in Assay Buffer; defining maximum binding) or 10 μL BMY7378 (10 μM final concentration; defining non-specific binding (NSB)). Membranes were then added to achieve a final volume of 100 μL. […] Five washes with 250 μL wash buffer (50 mM HEPES, 1 mM EDTA, pH 7.4) were performed at 4° C. to remove unbound radioactivity. […] The plates were sealed (TopSeal A) and filter-bound radioactivity was measured with a scintillation counter (TopCount, Packard BioScience) using a 3-minute counting protocol.
(§1) Total specific binding (B0) was determined by subtracting the mean NSB from the mean maximum binding. […]

[2] = biological target: T2, recombinant human Dopamine Subtype D2s receptors (Homo sapiens, UniProt P14416); test: Dopamine D2 [3H]-spiperone binding; details: inhibition of [3H]-spiperone binding; read-out: D2 bind pIC50 (converted)
T2 construct: purchased Perkin Elmer
T2 sequence (P14416 1-414 isoform P14416-2): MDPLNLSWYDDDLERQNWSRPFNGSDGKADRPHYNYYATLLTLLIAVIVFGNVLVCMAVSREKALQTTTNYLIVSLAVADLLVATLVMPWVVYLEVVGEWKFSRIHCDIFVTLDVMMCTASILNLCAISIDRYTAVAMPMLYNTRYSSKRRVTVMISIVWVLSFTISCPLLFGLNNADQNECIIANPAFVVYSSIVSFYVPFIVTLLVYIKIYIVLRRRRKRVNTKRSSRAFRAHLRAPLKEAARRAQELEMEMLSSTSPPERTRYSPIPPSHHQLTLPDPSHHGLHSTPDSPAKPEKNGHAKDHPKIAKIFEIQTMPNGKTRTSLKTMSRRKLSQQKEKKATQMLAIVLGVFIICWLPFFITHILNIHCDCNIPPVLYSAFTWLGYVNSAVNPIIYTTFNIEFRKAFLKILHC
Protocol: Membranes containing recombinant human Dopamine Subtype D2s receptors were obtained from Perkin Elmer. These were diluted in Assay Buffer (50 mM HEPES, 1 mM EDTA, 120 mM NaCl, 0.1% gelatin, pH 7.4) to provide a final concentration of membranes that gave a clear window between maximum and minimum specific binding.
Assays were performed in U-bottomed 96-well polypropylene plates. 30 PL [^3H]-spiperone (0.16 nM final concentration) and 30 μL of Compound A (10× final concentration) were added to each test well. For each assay plate 8 replicates were obtained for [^3H]-spiperone binding in the presence of 30 PL vehicle (10% (v/v) DMSO in Assay Buffer; defining maximum binding) or 30 μL Haloperidol (10 PM final concentration; defining non-specific binding (NSB)). Membranes were then added to achieve a final volume of 300 μL. […] Five washes with 250 μL wash buffer (50 mM HEPES, 1 mM EDTA, 120 mM NaCl, pH 7.4) were performed at 4° C. to remove unbound radioactivity. […] The plates were sealed (TopSeal A) and filter-bound radioactivity was measured with a scintillation counter (TopCount, Packard BioScience) using a 3-minute counting protocol.
as §1

[3] = system: guinea pig trachea; test: Bronchodilator onset in guinea pig isolated tracheal ring contracted with methacholine
Protocol: Evaluation of Bronchodilator Activity in the Guinea Pig Isolated Tracheal Ring Preparation
Guinea pigs (300-500 g) were killed by cervical dislocation and the trachea was isolated. The trachea was cut into segments 2-3 cartilage rings in width and suspended in 10 ml organ baths in modified Krebs' solution (mM; NaCl, 90; NaHCO3, 45; KCl, 5; MgSO4.7H2O, 0.5; Na2HPO4.2H2O, 1; CaCl2, 2.25; glucose, 10; pH 7.4) gassed with 5% CO2, 95% […] at 37° C.). The tracheal rings were attached to an isometric force transducer for the measurement of isometric tension. The tissues were washed and a force of 1 g was applied to each tissue. The rings were contracted with methacholine (1 μM). Once the contraction had reached a plateau, vehicle (0.01% DMSO in distilled H2O), compound A (3 nM), roflumilast (1 μM) or a combination of compound A (3 nM) and roflumilast (1 μM) was added and the tissue left until the response had reached a plateau. Data were collected using the Chart 4 software (ADInstruments, Charlgrove, UK). The time to 90% of the maximum effect of the bronchodilator (onset time) was measured and expressed in min (mean ±s.e.mean).

Compound: CCN(CC)CCN(CCNCCc1ccc(O)c2[nH]c(=O)sc12)C(=O)CCOCCc1cccc2ccccc12 [Compound A, N-[2-(Diethylamino)ethyl]-N-(2-{[2-(4-hydroxy-2-oxo-2,3-dihydro-1,3-benzothiazol-7-yl)ethyl]amino}ethyl)-3-[2-(1-naphthyl)ethoxy]propanamide dihydrobromide]
- IC50 [1]: 251 nM
- IC50 [2]: 794 nM
- onset time (time to 90% of the maximum effect) ([3]; Compound A 3 nM in the presence of roflumilast 1 μM): 5.7 ± 1.0 min
- onset time (time to 90% of the maximum effect) ([3]; compound A 3 nM alone, methacholine 1 μM contraction, mean ±s.e.mean): 16 ± 3.0 min
